Among the data in patent US11780842B2, “TYK2 pseudokinase ligands” (Ventyx Biosciences, Inc., priority 2019, dated 2023) are IC50 values, retold here.

The structures appear in SMILES notation. A value given as a limit tells only on which side of the number the result lay.

The test system of this experiment is IFN-a/Jak1Tyk2. Description: Co-stimulation assay in lysed whole blood: IFNa (JAK1/TYK2) stimulated STAT1 phosphorylation. It counts as cell-based. The conditions noted are these: lysed human whole blood, IFNa 100 ng/mL (co-stimulated with GM-CSF 10 ng/mL), pSTAT1 by flow cytometry. On the procedure: Example 4: Co-Stimulation Assay in Lysed Whole Blood; JAK2: GM-CSF Stimulated STATS Phosphorylation and JAK1/TYK2 Stimulated STAT1 Phosphorylation Assay
Human Blood Lysis Using Abcam's RBC Lysis Buffer
Dilute RBC lysis buffer to 1× in distilled water. Add 2 mL blood to 38 mL of 1×RBC-lysis buffer. Incubate for 15 mins at RT, in dark. Spin at 300 g, 5 mins, to collect the pellet. Re-lyse if necessary. Re-suspend pellet in 5 mL of cRPMI.
Compound and Cytokine Treatment
Aliquot 80 μL of lysed human blood in to wells of 96 deep-well plate. Add 10 μl of (10× conc.) of different concentrations of compounds to all wells except controls (unstained and unstimulated) and mix it with the help of 100 uL multichannel. Add 10 uL of RPMI media in controls. For dilution of compounds and dilution range please refer Appendix. Incubate on water bath or CO2 incubator for 1 hour at 37° C. Add 10 μL of (10× conc.) of cytokine mix (GM-CSF and IFNa) (final conc. 10 ng/mL of GM-CSF and 100 ng/mL of IFNa) to each well except unstimulated and unstained controls and incubate further for 20 minutes on water bath at 37° C.
Add 900 μL of prewarmed 1× Fix/Lyse solution (Appendix) and mix it properly using 1000 μl multichannel, incubate further on water bath at 37° C. for 10 minutes (which includes time of addition). Centrifuge at 800× g for 5 minutes at 40° C.; remove 900 uL of supernatant and add 900 μL of 1×PBS. Centrifuge at 800× g for 5 minutes at 40° C., remove 900 μL of supernatant. Wash one more time with 900 μL of PBS (optional) and resuspend pellets in 100 uL of PBS.
Disrupt the pellet by gentle tapping and resuspend in 1000 μL of BD Phosflow Perm Buffer III and incubate plate on ice for 30 minutes. Centrifuge plate at 800× g for 5 minutes at 40° C. Wash two more times with 1000 μL of BD Pharmingen Stain Buffer.
Disrupt the pellet by gentle tapping. Resuspend pellets in 100 uL of Stain Buffer and add 5 μL of pSTAT5_AF488 Ab and 5 uL of pSTAT1_PE in all wells except unstained control and mix properly using 200 μl multichannel, incubate overnight at […]. Add 900 μL of wash buffer and centrifuge at 1800 rpm for 3 minutes at […]. Wash one more time with 1000 μL of BD Pharmingen Stain Buffer. Finally resuspend the pellet in 300 uL of BD Pharmingen Stain Buffer. Transfer the cells to 96-well v-bottom plate and acquire the cells in Beckman Coulter CytExpert. Acquiring cells in Flow Cytometer: Keep the threshold value to 250 and cell concentration should not exceed 100-500 cells/μL. Acquire at least 5,000-10,000 cells.
RPMI 1640 Complete Medium: RPMI 1640 media+10% FBS.
Cytokine dilution: 1) GM-CSF Stock at 100 ug/mL. Prepare an intermediate dilution of 1 ug/mL by adding 2 uL of stock into 198 uL of cRPMI. Further dilute to 100 ng/mL by adding 100 uL of the intermediate stock to 900 uL of cRPMI. 2) IFNa Stock at 200 ug/mL. Dilute IFNa stock 1:200 by adding 5 uL of stock into the 1000 uL of 100 ng/mL GM-CSF working stock as above to give a combined working stock of 1000 ng/mL of IFNa and 100 ng/mL GM-CSF (lox). Keep it on ice until used.
Lyse/Fix buffer preparation: Dilute 5× Lyse/Fix buffer to 1× using MQ water and keep at 37° C. until used.
BD Phosflow perm buffer III: Keep on ice/fridge.

As to `CNc1cc2nc3c(cnn13)C(=O)NCCOc1cncc(c1)N2` [Compound 41, (1^3E,1^4E)-1^7-(methylamino)-4-oxa-2,7-diaza-1(5,3)-pyrazolo[1,5-a]pyrimidina-3(3,5)-pyridinacyclooctaphan-8-one], the IC50 fell in the range of 1 to 10 µM.

`CNc1cc2nn3c(cnc13)C(=O)NCCOc1cccc(c1)N2` [Compound 12, (E)-1^8-(methylamino)-4-oxa-2,7-diaza-1(6,3)-imidazo[1,2-b]pyridazina-3(1,3)-benzenacyclooctaphan-8-one] registered an IC50 of 0.1 to 1 µM.

The molecule `CNc1cc2nc3c(cnn13)C(=O)NCCCOc1ccc(F)cc1N2` [Compound 46, (1^3E,1^4E)-3^5-fluoro-1^7-(methylamino)-4-oxa-2,8-diaza-1(5,3)-pyrazolo[1,5-a]pyrimidina-3(1,2)-benzenacyclononaphan-9-one] gave an IC50 of 1 to 10 µM. Consider `CNc1cc2nc3c(cnn13)C(=O)NCCC(=O)c1cccc(c1)N2` [Compound 44, (1^3E,1^4E)-1^7-(methylamino)-2,7-diaza-1(5,3)-pyrazolo[1,5-a]pyrimidina-3(1,3)-benzenacyclooctaphane-4,8-dione], for which the IC50 fell in the range of 1 to 10 µM. The value for `CNc1cc2nc3c(cnn13)C(=O)NCCn1cc(cn1)N2` [Compound 47, (1^3E,1^4E,3^4E)-1^7-(methylamino)-31H-2,6-diaza-1(5,3)-pyrazolo[1,5-a]pyrimidina-3(4,1)-pyrazolacycloheptaphan-7-one] was 1 to 10 µM. The value for `CNc1cc2nc3c(cnn13)C(=O)NCCOc1cc(ccc1F)N2` [Compound 21, (1^3E,1^4E)-3^4-fluoro-1^7-(methylamino)-4-oxa-2,7-diaza-1(5,3)-pyrazolo[1,5-a]pyrimidina-3(1,3)-benzenacyclooctaphan-8-one] was 0.1 to 1 µM; that for `CNc1cc2nc3c(cnn13)C(=O)NCCOc1cc(c(F)cc1F)N2` [Compound 29, (1^5E,1^4E)-3^4,3^6-difluoro-1^7-(methylamino)-4-oxa-2,7-diaza-1(5,3)-pyrazolo[1,5-a]pyrimidina-3(1,3)-benzenacyclooctaphan-8-one] was 0.1 to 1 µM. Then `CNc1cc2nc3c(cnn13)C(=O)NCCOc1cc(C)cc(c1)N2` [Compound 26, (1^3E,1^4E)-3^5-methyl-1^7-(methylamino)-4-oxa-2,7-diaza-1(5,3)-pyrazolo[1,5-a]pyrimidina-3(1,3)-benzenacyclooctaphan-8-one], with 0.1 to 1 µM; and `CNc1cc2nc3c(cnn13)C(=O)NCCOc1cc(F)ccc1N2` [Compound 34, (1^3E,1^4E)-3^4-fluoro-1^7-(methylamino)-4-oxa-2,7-diaza-1(5,3)-pyrazolo[1,5-a]pyrimidina-3(1,2)-benzenacyclooctaphan-8-one], with 0.1 to 1 µM; and `CNc1cc2nc3c(cnn13)C(=O)NC(C)COc1ccccc1N2` (stereo not shown) [Compound 36, (1^3E,1^4E)-6-methyl-1^7-(methylamino)-4-oxa-2,7-diaza-1(5,3)-pyrazolo[1,5-a]pyrimidina-3(1,2)-benzenacyclooctaphan-8-one], with 0.1 to 1 µM. The molecule `CNc1cc2nc3c(cnn13)C(=O)NCCOc1ccc(F)c(c1)N2` [Compound 22, (1^3E,1^4E)-3^6-fluoro-1^7-(methylamino)-4-oxa-2,7-diaza-1(5,3)-pyrazolo[1,5-a]pyrimidina-3(1,3)-benzenacyclooctaphan-8-one] yielded an IC50 of 0.1 to 1 µM. Then `CNc1cc2nc3c(cnn13)C(=O)NCCCc1cc(cc(OC)c1)N2` [Compound 40, (1^3E,1^4E)-3^5-methoxy-1^7-(methylamino)-2,7-diaza-1(5,3)-pyrazolo[1,5-a]pyrimidina-3(1,3)-benzenacyclooctaphan-8-one], with 1 to 10 µM; and `CNc1cc2nc3c(cnn13)C(=O)NCC(C)Oc1ccccc1N2` (stereo not shown) [Compound 30, (1^3E,1^4E)-5-methyl-1^7-(methylamino)-4-oxa-2,7-diaza-1(5,3)-pyrazolo[1,5-a]pyrimidina-3(1,2)-benzenacyclooctaphan-8-one], with 0.1 to 1 µM. Then `CNc1cc2nc3c(cnn13)C(=O)NCCOc1cc(cc(F)c1F)N2` [Compound 28, (1^3E,1^4E)-3^4,3^5-difluoro-1^7-(methylamino)-4-oxa-2,7-diaza-1(5,3)-pyrazolo[1,5-a]pyrimidina-3(1,3)-benzenacyclooctaphan-8-one], with 0.1 to 1 µM; and `CNc1cc2nc3c(cnn13)C(=O)NCCOc1cc(Cl)cc(c1)N2` [Compound 33, (1^3E,1^4E)-3^5-chloro-1^7-(methylamino)-4-oxa-2,7-diaza-1(5,3)-pyrazolo[1,5-a]pyrimidina-3(1,3)-benzenacyclooctaphan-8-one], with 0.1 to 1 µM; and `CNc1cc2nc3c(cnn13)C(=O)NCCOc1cc(c(Cl)cc1Cl)N2` [Compound 27, (1^3E,1^4E)-3^4,3^6-dichloro-1^7-(methylamino)-4-oxa-2,7-diaza-1(5,3)-pyrazolo[1,5-a]pyrimidina-3(1,3)-benzenacyclooctaphan-8-one], with 0.1 to 1 µM. The value for `CNc1cc2nc3c(cnn13)C(=O)NCCOc1cc(F)cc(c1)N2` [Compound 19, (1^3E,1^4E)-3^5-fluoro-1^7-(methylamino)-4-oxa-2,7-diaza-1(5,3)-pyrazolo[1,5-a]pyrimidina-3(1,3)-benzenacyclooctaphan-8-one] was 0.1 to 1 µM. `CNc1cc2nc3c(cnn13)C(=O)NCC(C)(C)c1cccc(c1)N2` [Compound 13, (1^3E,1^4E)-4,4-dimethyl-1^7-(methylamino)-2,6-diaza-1(5,3)-pyrazolo[1,5-a]pyrimidina-3(1,3)-benzenacycloheptaphan-7-one] registered an IC50 of at most 0.5 µM. In turn, `CNc1cc2nc3c(cnn13)C(=O)NCCOc1cc(ccc1Cl)N2` [Compound 23, (1^3E,1^4E)-3^4-chloro-1^7-(methylamino)-4-oxa-2,7-diaza-1(5,3)-pyrazolo[1,5-a]pyrimidina-3(1,3)-benzenacyclooctaphan-8-one] yielded an IC50 of 0.1 to 1 µM.

In turn, `CNc1cc2nc3c(cnn13)C(=O)NCCOc1cc(ccc1OC)N2` [Compound 31, (1^3E,1^4E)-3^4-methoxy-1^7-(methylamino)-4-oxa-2,7-diaza-1(5,3)-pyrazolo[1,5-a]pyrimidina-3(1,3)-benzenacyclooctaphan-8-one] returned an IC50 of 0.1 to 1 µM.

`CNc1cc2nc3c(cnn13)C(=O)NCCOc1ccc(F)cc1N2` [Compound 32, (1^3E,1^4E)-3^5-fluoro-1^7-(methylamino)-4-oxa-2,7-diaza-1(5,3)-pyrazolo[1,5-a]pyrimidina-3(1,2)-benzenacyclooctaphan-8-one] came in with a half-inhibitory concentration (IC50) of 0.1 to 1 µM. The value for `CNc1cc2nc3c(cnn13)C(=O)NCCc1cccc(c1)N2` [Compound 16, (1^3E,1^4E)-1^7-(methylamino)-2,6-diaza-1(5,3)-pyrazolo[1,5-a]pyrimidina-3(1,3)-benzenacycloheptaphan-7-one] was at most 0.5 µM; that for `CNc1cc2nc3c(cnn13)C(=O)NCC(C)Oc1cccc(c1)N2` (stereo not shown) [Compound 37, (1^3E,1^4E)-5-methyl-1^7-(methylamino)-4-oxa-2,7-diaza-1(5,3)-pyrazolo[1,5-a]pyrimidina-3(1,3)-benzenacyclooctaphan-8-one] was 1 to 10 µM. In turn, `CNc1cc2nc3c(cnn13)C(=O)NCCOc1ccccc1N2` [Compound 20, (1^3E,1^4E)-1^7-(methylamino)-4-oxa-2,7-diaza-1(5,3)-pyrazolo[1,5-a]pyrimidina-3(1,2)-benzenacyclooctaphan-8-one] returned an IC50 of 0.1 to 1 µM. Then `CNc1cc2nc3c(cnn13)C(=O)NCCOc1cc(c(F)cc1C)N2` [Compound 39, (1^3E,1^4E)-3^6-fluoro-34-methyl-1^7-(methylamino)-4-oxa-2,7-diaza-1(5,3)-pyrazolo[1,5-a]pyrimidina-3(1,3)-benzenacyclooctaphan-8-one], with 1 to 10 µM.
